≈ marks a conversion by molar mass, not a printed value.
How the values were obtained:
[1] = molecular target: T1, Enoyl-(Acyl-carrier-protein) reductase (Streptococcus pneumoniae, UniProt Q9FBC5); experiment: Inhibition of Streptococcus pneumoniae enoyl-ACP reductase FabK
T1 sequence (Q9FBC5 whole entry): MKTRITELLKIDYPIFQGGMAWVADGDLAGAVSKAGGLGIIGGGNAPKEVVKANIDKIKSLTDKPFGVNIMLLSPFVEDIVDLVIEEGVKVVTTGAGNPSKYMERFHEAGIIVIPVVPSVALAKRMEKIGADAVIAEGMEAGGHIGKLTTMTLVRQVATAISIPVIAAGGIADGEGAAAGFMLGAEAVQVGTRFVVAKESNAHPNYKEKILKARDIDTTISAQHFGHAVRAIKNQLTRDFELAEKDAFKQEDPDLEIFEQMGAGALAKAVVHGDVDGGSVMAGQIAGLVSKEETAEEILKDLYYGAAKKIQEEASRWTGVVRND

[2] = molecular target: T2, Enoyl-[acyl-carrier-protein] reductase [NADH] FabI (Escherichia coli K-12, UniProt P0AEK4); experiment: Inhibition of Escherichia coli enoyl-ACP reductase FabI
T2 sequence (P0AEK4 whole entry): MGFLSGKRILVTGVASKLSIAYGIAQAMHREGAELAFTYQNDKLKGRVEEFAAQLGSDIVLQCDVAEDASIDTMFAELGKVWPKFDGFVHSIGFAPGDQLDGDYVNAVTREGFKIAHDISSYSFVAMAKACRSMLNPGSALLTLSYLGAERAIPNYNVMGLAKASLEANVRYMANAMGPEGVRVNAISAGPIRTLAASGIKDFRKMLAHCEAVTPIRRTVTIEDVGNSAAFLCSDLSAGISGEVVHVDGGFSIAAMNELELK

Streptococcus pneumoniae = experiment: Antibacterial activity against Streptococcus pneumoniae KU197 mutant by broth microdilution method; format: functional
K562 = experiment: Cytotoxicity against human K562 cells; format: functional, cell-based

Q: For CS(=O)(=O)c1ccc2nc(NC(=O)NCCc3cnc[nH]3)sc2c1, which IC50 [1] is on record?
A: > 32 µM

Q: And the IC50 [2]?
A: > 32 µM

Q: Which results are given for CS(=O)(=O)c1ccc2nc(NC(=O)NCc3nc4ccccc4[nH]3)sc2c1?
A: MIC (Streptococcus pneumoniae): 4 µg/mL (≈ 9.96 µM); IC50 [1]: 0.74 µM; IC50 [2]: > 32 µM

Q: For CS(=O)(=O)c1ccc2nc(NC(=O)NCc3nc(-c4ccccc4)c[nH]3)sc2c1, which MIC (Streptococcus pneumoniae) is on record?
A: 0.5 µg/mL (≈ 1.17 µM)

Q: What about the IC50 [1] of the same compound?
A: 0.088 µM

Q: What about the IC50 [2] of the same compound?
A: > 32 µM

Q: What does the source list for O=C(CO/N=C/c1cccc([N+](=O)[O-])c1)Nc1nc2ccccc2s1?
A: MIC (Streptococcus pneumoniae): > 32 µg/mL; IC50 [1]: 1.1 µM; IC50 [2]: > 32 µM

Q: Cc1ccc2nc(NC(=O)NCc3nc4ccccc4[nH]3)sc2c1 was tested. Which MIC (Streptococcus pneumoniae) did it give?
A: 16 µg/mL (≈ 47.4 µM)

Q: And the IC50 [1]?
A: 2.6 µM

Q: What about the IC50 [2] of the same compound?
A: > 32 µM

Q: What does the source list for O=C(NCc1nc2ccccc2[nH]1)Nc1nc2ccc(F)cc2s1?
A: IC50 [1]: 6.4 µM; IC50 [2]: > 32 µM

Q: Which MIC (Streptococcus pneumoniae) does the source give for O=C(NCc1ncc(-c2ccc(Br)cc2)[nH]1)Nc1ncc(Sc2ccccn2)s1 here?
A: 0.25 µg/mL (≈ 0.513 µM)

Q: And the IC50 (K562)?
A: > 20 µM

Q: What about the IC50 [2] of the same compound?
A: > 32 µM

Q: For O=C(Nc1nc2ccccc2s1)OCc1nc2ccccc2[nH]1, which MIC (Streptococcus pneumoniae) is on record?
A: > 32 µg/mL

Q: And the IC50 [1]?
A: > 32 µM

Q: And the IC50 [2]?
A: > 32 µM

Q: With COc1ccc2sc(NC(=O)NCc3nc4ccccc4[nH]3)nc2c1 as the compound, how does the IC50 [1] read?
A: > 32 µM

Q: What about the IC50 [2] of the same compound?
A: > 32 µM

Q: NC(=O)c1ccc(Sc2cnc(NC(=O)NCc3nc(-c4ccccc4)c[nH]3)s2)cc1 was tested. Which MIC (Streptococcus pneumoniae) did it give?
A: 2 µg/mL (≈ 4.44 µM)

Q: And the IC50 [1]?
A: 0.037 µM

Q: What about the IC50 [2] of the same compound?
A: > 32 µM

Q: Which results are given for O=C(NCc1ncc(-c2cccc(Br)c2)[nH]1)Nc1ncc(Sc2ccccn2)s1?
A: MIC (Streptococcus pneumoniae): 16 µg/mL (≈ 32.8 µM); IC50 [2]: > 32 µM

Q: Which IC50 [1] does the source give for COc1cccc2sc(NC(=O)NCc3nc4ccccc4[nH]3)nc12 here?
A: > 32 µM

Q: And the IC50 [2]?
A: > 32 µM

Q: For COc1ccc2nc(NC(=O)NCc3nc4ccccc4[nH]3)sc2c1, which MIC (Streptococcus pneumoniae) is on record?
A: 16 µg/mL (≈ 45.3 µM)

Q: And the IC50 [1]?
A: 2 µM

Q: And the IC50 [2]?
A: > 32 µM

Q: Which results are given for O=C(CSc1nc2ccccc2[nH]1)Nc1nc2ccccc2s1?
A: MIC (Streptococcus pneumoniae): > 32 µg/mL; IC50 [1]: > 32 µM; IC50 [2]: > 32 µM

Q: With O=C(NCc1nc(-c2ccccc2)c[nH]1)Nc1ncc(-c2ccccc2)s1 as the compound, how does the MIC (Streptococcus pneumoniae) read?
A: 4 µg/mL (≈ 10.7 µM)

Q: And the IC50 [1]?
A: 0.38 µM

Q: And the IC50 [2]?
A: > 32 µM

Q: Which results are given for O=C(NCc1nc(-c2ccccc2)c[nH]1)Nc1ncc(Sc2ccccc2)s1?
A: MIC (Streptococcus pneumoniae): 2 µg/mL (≈ 4.91 µM); IC50 [1]: 0.037 µM; IC50 [2]: > 33 µM

Q: Which results are given for O=C(NCc1nc2ccccc2[nH]1)Nc1nc2ccccc2s1?
A: MIC (Streptococcus pneumoniae): 32 µg/mL (≈ 99 µM); IC50 [1]: 6.9 µM; IC50 [2]: > 32 µM

Q: Which MIC (Streptococcus pneumoniae) does the source give for N#Cc1ccc2nc(NC(=O)NCc3nc4ccccc4[nH]3)sc2c1 here?
A: 8 µg/mL (≈ 23 µM)

Q: What about the IC50 [1] of the same compound?
A: 4.5 µM

Q: And the IC50 [2]?
A: > 32 µM

Q: Which results are given for CS(=O)(=O)c1ccc2nc(NC(=O)NCc3cccs3)sc2c1?
A: MIC (Streptococcus pneumoniae): > 32 µg/mL; IC50 [1]: 30 µM; IC50 [2]: > 32 µM

Q: O=C(NCc1nc(-c2ccccc2)c[nH]1)Nc1ncc(Sc2ccc(C(=O)O)cc2)s1 was tested. Which MIC (Streptococcus pneumoniae) did it give?
A: 8 µg/mL (≈ 17.7 µM)

Q: What about the IC50 [1] of the same compound?
A: 0.098 µM

Q: What about the IC50 [2] of the same compound?
A: > 32 µM

Q: For Oc1cc(Cl)ccc1Oc1ccc(Cl)cc1Cl [TRICLOSAN], which IC50 [1] is on record?
A: > 32 µM

Q: How did the IC50 [1] turn out when O=C(NCc1nc(-c2ccccc2)c[nH]1)Nc1nc(-c2ccccc2)cs1 was run?
A: > 32 µM

Q: What about the IC50 [2] of the same compound?
A: > 32 µM

Q: For CS(=O)(=O)c1ccc2nc(NC(=O)NCc3cccnc3)sc2c1, which MIC (Streptococcus pneumoniae) is on record?
A: > 32 µg/mL

Q: And the IC50 [1]?
A: 23 µM

Q: What about the IC50 [2] of the same compound?
A: > 32 µM

Q: With CS(=O)(=O)c1ccc2nc(NC(=O)NCc3ccc(-c4ccccn4)s3)sc2c1 as the compound, how does the MIC (Streptococcus pneumoniae) read?
A: > 32 µg/mL

Q: And the IC50 [1]?
A: 3.4 µM

Q: And the IC50 [2]?
A: > 32 µM

Q: How did the MIC (Streptococcus pneumoniae) turn out when O=C(NCc1ncc(-c2ccccc2)[nH]1)Nc1ncc(Sc2ccccn2)s1 was run?
A: 2 µg/mL (≈ 4.9 µM)

Q: And the IC50 [2]?
A: > 32 µM

Q: O=C(CSc1nc2ccccc2[nH]1)NCc1nc2ccccc2s1 was tested. Which MIC (Streptococcus pneumoniae) did it give?
A: > 32 µg/mL

Q: And the IC50 [1]?
A: > 32 µM

Q: And the IC50 [2]?
A: > 32 µM

Q: What does the source list for O=C(NCc1ncc(-c2ccc(Cl)c(Cl)c2)[nH]1)Nc1ncc(Sc2ccccn2)s1?
A: MIC (Streptococcus pneumoniae): 1 µg/mL (≈ 2.09 µM); IC50 [1]: 0.0037 µM; IC50 [2]: > 32 µM

Source: ChEMBL document CHEMBL1137543, “Phenylimidazole derivatives as specific inhibitors of bacterial enoyl-acyl carrier protein reductase FabK” (Bioorg Med Chem, 2007)
